US11052063B2, “Methods of reducing RLP-C” (Amarin Pharmaceuticals Ireland Limited, priority 2014, dated 2021)

Test system: Serum RLP-C
Experiment: 12-week placebo-controlled study (MARINE), serum RLP-C by immunoseparation assay, patients with fasting TG ≥500 mg/dL
Assay type: in vivo, human
Conditions: for Median Change from Baseline in RLP-C vs. Placebo: Hodges-Lehmann estimate; for Median Change from Baseline in RLP-C vs. Placebo / RLP-C Concentration End of Treatment: week 12; for RLP-C Concentration Change: median change from baseline to week 12; for RLP-C Concentration Baseline / RLP-C Concentration End of Treatment: median; for RLP-C Concentration Baseline: before treatment
Method: A multi-center, placebo-controlled randomized, double-blind, 12-week study with an open-label extension was performed to evaluate the efficacy and safety of AMR101 in patients with fasting triglyceride levels≥500 mg/dL. The primary objective of the study was to determine the efficacy of >96%, by weight of all fatty acids present, ethyl-EPA (“AMR101”) 2 g daily and 4 g daily, compared to placebo, in lowering fasting TG levels in patients with fasting TG levels≥500 mg/dL and ≤1500 mg/dL (≥5.65 mmol/L and ≤16.94 mmol/L). The population for this study was men and women (women of childbearing potential needed to be on contraception or practice abstinence) >18 years of age with a body mass index≤45 kg/m^2 who were not on lipid-altering therapy or were not currently on lipid-altering therapy. Patients currently on statin therapy (with or without ezetimibe) were evaluated by the investigator as to whether this therapy could be safely discontinued at screening, or if it should have been continued. If statin therapy (with or without ezetimibe) was to be continued, dose(s) must have been stable for ≥4 weeks prior to randomization. Patients taking non-statin, lipid-altering medications (niacin>200 mg/day, fibrates, fish oil, other products containing omega-3 fatty acids, or other herbal products or dietary supplements with potential lipid-altering effects), either alone or in combination with statin therapy (with or without ezetimibe), must have been able to safely discontinue non-statin, lipid-altering therapy at screening. Approximately 240 patients were randomized at approximately 50 centers in North America, South America, Central America, Europe, India, and South Africa. The study was a 58- to 60-week, Phase 3, multi-center study consisting of 3 study periods: (1) a 6- to 8-week screening period that included a diet and lifestyle stabilization and washout period and a TG qualifying period; (2) a 12-week, double-blind, randomized, placebo-controlled treatment period; and (3) a 40-week, open-label, extension period. After confirmation of qualifying fasting TG values, eligible patients entered a 12-week, randomized, double-blind treatment period. At Visit 4 (Week 0), patients were randomly assigned to one of the following treatment groups: • AMR101 2 g daily, • AMR101 4 g daily, or • Placebo. Eligible patients were randomly assigned at Visit 4 (Week 0) to orally receive AMR101 2 g daily, AMR101 4 g daily, or placebo for the 12-week double-blind treatment period. AMR101 was provided in 1 g liquid-filled, oblong, gelatin capsules. The matching placebo capsule was filled with light liquid paraffin and contained 0 g of AMR101. During the double-blind treatment period, patients took 2 capsules (AMR101 or matching placebo) in the morning and 2 in the evening for a total of 4 capsules per day. Patients in the AMR101 2 g/day treatment group received 1 AMR101 1 g capsule and 1 matching placebo capsule in the morning and in the evening. Patients in the AMR101 4 g/day treatment group received 2 AMR101 1 g capsules in the morning and evening. The primary efficacy variable for the double-blind treatment period was percent change in TG from baseline to Week 12 endpoint. […]

[1] = 2 g/day, Baseline TG >750 mg/dl
[2] = 2 g/day, Baseline TG ≤750 mg/dl
[3] = 4 g/day, Baseline TG >750 mg/dl
[4] = 4 g/day, Baseline TG ≤750 mg/dl

CC/C=C\C/C=C\C/C=C\C/C=C\C/C=C\CCCC(=O)OCC [AMR101, ethyl-EPA]
RLP-C compared to placebo (2 g/day treatment group, 12 weeks): reduced RLP-C compared to placebo | Median Change from Baseline in RLP-C vs. Placebo [1]: −25.4% | RLP-C Concentration Change [1]: −10.7% | RLP-C Concentration Baseline [1]: 66.0 mg/dL | RLP-C Concentration End of Treatment [1]: 65.0 mg/dL | Median Change from Baseline in RLP-C vs. Placebo [2]: −7.3% | RLP-C Concentration Change [2]: 18.2% | RLP-C Concentration Baseline [2]: 27.5 mg/dL | RLP-C Concentration End of Treatment [2]: 32.5 mg/dL | Median Change from Baseline in RLP-C vs. Placebo (2 g/day, ITT): −14.9% | RLP-C Concentration Change (2 g/day, ITT): 5.8% | RLP-C Concentration Baseline (2 g/day, ITT): 43.0 mg/dL | RLP-C Concentration End of Treatment (2 g/day, ITT): 44.5 mg/dL | Median Change from Baseline in RLP-C vs. Placebo (2 g/day, No Statin Use): −8.5% | RLP-C Concentration Change (2 g/day, No Statin Use): 3.0% | RLP-C Concentration Baseline (2 g/day, No Statin Use): 45.0 mg/dL | RLP-C Concentration End of Treatment (2 g/day, No Statin Use): 44.5 mg/dL | Median Change from Baseline in RLP-C vs. Placebo (2 g/day, With Statin Use): −41.6% | RLP-C Concentration Change (2 g/day, With Statin Use): 29.2% | RLP-C Concentration Baseline (2 g/day, With Statin Use): 31.5 mg/dL | RLP-C Concentration End of Treatment (2 g/day, With Statin Use): 46.5 mg/dL | median placebo-adjusted reductions in RLP-C (4 g/day treatment group, 12 weeks, p=0.0041, stated as reduction): 29.8% | reductions in RLP-C compared to baseline (4 g/day treatment group, 12 weeks, stated as reduction): 16.1% | Median Change from Baseline in RLP-C vs. Placebo [3]: −37.5% | RLP-C Concentration Change [3]: −25.4% | RLP-C Concentration Baseline [3]: 89.5 mg/dL | RLP-C Concentration End of Treatment [3]: 68.5 mg/dL | Median Change from Baseline in RLP-C vs. Placebo [4]: −26.1% | RLP-C Concentration Change [4]: −8.8% | RLP-C Concentration Baseline [4]: 34.0 mg/dL | RLP-C Concentration End of Treatment [4]: 29.0 mg/dL | Median Change from Baseline in RLP-C vs. Placebo (4 g/day, ITT): −29.8% | RLP-C Concentration Change (4 g/day, ITT): −16.1% | RLP-C Concentration Baseline (4 g/day, ITT): 45.0 mg/dL | RLP-C Concentration End of Treatment (4 g/day, ITT): 38.0 mg/dL | Median Change from Baseline in RLP-C vs. Placebo (4 g/day, No Statin Use): −21.4% | RLP-C Concentration Change (4 g/day, No Statin Use): −16.6% | RLP-C Concentration Baseline (4 g/day, No Statin Use): 45.0 mg/dL | RLP-C Concentration End of Treatment (4 g/day, No Statin Use): 39.5 mg/dL | Median Change from Baseline in RLP-C vs. Placebo (4 g/day, With Statin Use): −56.8% | RLP-C Concentration Change (4 g/day, With Statin Use): −16.1% | RLP-C Concentration Baseline (4 g/day, With Statin Use): 37.0 mg/dL | RLP-C Concentration End of Treatment (4 g/day, With Statin Use): 33.0 mg/dL
